{"source": "patent EP0238060B1", "about": "“Cephalosporin derivatives, processes for their preparation and antibacterial agents” (Banyu Pharmaceutical Co., Ltd., priority 1986, dated 1987)", "key": {"A.calcoaceticus No. 4": {"test_system": "A.calcoaceticus No. 4", "test": "In vitro antibacterial activity, agar plate dilution method (MIC)", "assay_type": "cell-based", "conditions": "Acinetobacter calcoaceticus, NO.4, 16 h, read-out: Minimum Inhibitory Concentration (MIC: µg/ml)"}, "C.freundii GN346/16": {"test_system": "C.freundii GN346/16", "test": "In vitro antibacterial activity, agar plate dilution method (MIC)", "assay_type": "cell-based", "conditions": "Citrobacter freundii, GN346, 16 h, read-out: Minimum Inhibitory Concentration (MIC: µg/ml)"}, "C.freundii GN346": {"test_system": "C.freundii GN346", "test": "In vitro antibacterial activity, agar plate dilution method (MIC)", "assay_type": "cell-based", "conditions": "Citrobacter freundii, GN346, 16 h, read-out: Minimum Inhibitory Concentration (MIC: µg/ml)"}, "E.cloacae 963": {"test_system": "E.cloacae 963", "test": "In vitro antibacterial activity, agar plate dilution method (MIC)", "assay_type": "cell-based", "conditions": "Enterobacter cloacae, 963, 16 h, read-out: Minimum Inhibitory Concentration (MIC: µg/ml)"}, "E.cloacae Nek 39": {"test_system": "E.cloacae Nek 39", "test": "In vitro antibacterial activity, agar plate dilution method (MIC)", "assay_type": "cell-based", "conditions": "Enterobacter cloacae, NEK39, 16 h, read-out: Minimum Inhibitory Concentration (MIC: µg/ml)"}, "E.coli CSH(RE45)": {"test_system": "E.coli CSH(RE45)", "test": "In vitro antibacterial activity, agar plate dilution method (MIC)", "assay_type": "cell-based", "conditions": "Escherichia coli, 16 h, read-out: Minimum Inhibitory Concentration (MIC: µg/ml)"}, "E.coli CSH2 (RK1)": {"test_system": "E.coli CSH2 (RK1)", "test": "In vitro antibacterial activity, agar plate dilution method (MIC)", "assay_type": "cell-based", "conditions": "Escherichia coli, 16 h, read-out: Minimum Inhibitory Concentration (MIC: µg/ml)"}, "E.coli GN5482": {"test_system": "E.coli GN5482", "test": "In vitro antibacterial activity, agar plate dilution method (MIC)", "assay_type": "cell-based", "conditions": "Escherichia coli, GN5482, 16 h, read-out: Minimum Inhibitory Concentration (MIC: µg/ml)"}, "E.coli NIHJ JC2": {"test_system": "E.coli NIHJ JC2", "test": "In vitro antibacterial activity, agar plate dilution method (MIC)", "assay_type": "cell-based", "conditions": "Escherichia coli, NIHJJC2, 16 h, read-out: Minimum Inhibitory Concentration (MIC: µg/ml)"}, "K.oxytoca GN10650": {"test_system": "K.oxytoca GN10650", "test": "In vitro antibacterial activity, agar plate dilution method (MIC)", "assay_type": "cell-based", "conditions": "Klebsiella oxytoca, GN10650, 16 h, read-out: Minimum Inhibitory Concentration (MIC: µg/ml)"}, "K.pneumoniae No. 42": {"test_system": "K.pneumoniae No. 42", "test": "In vitro antibacterial activity, agar plate dilution method (MIC)", "assay_type": "cell-based", "conditions": "Klebsiella pneumoniae, NO.42, 16 h, read-out: Minimum Inhibitory Concentration (MIC: µg/ml)"}, "K.pneumoniae PCI-602": {"test_system": "K.pneumoniae PCI-602", "test": "In vitro antibacterial activity, agar plate dilution method (MIC)", "assay_type": "cell-based", "conditions": "Klebsiella pneumoniae, PCI602, 16 h, read-out: Minimum Inhibitory Concentration (MIC: µg/ml)"}, "M.luteus ATCC9341": {"test_system": "M.luteus ATCC9341", "test": "In vitro antibacterial activity, agar plate dilution method (MIC)", "assay_type": "cell-based", "conditions": "Micrococcus luteus, ATCC9341, 16 h, read-out: Minimum Inhibitory Concentration (MIC: µg/ml)"}, "M.morganii GN5407": {"test_system": "M.morganii GN5407", "test": "In vitro antibacterial activity, agar plate dilution method (MIC)", "assay_type": "cell-based", "conditions": "Morganella morganii, GN5407, 16 h, read-out: Minimum Inhibitory Concentration (MIC: µg/ml)"}, "P.vulgaris HX-19": {"test_system": "P.vulgaris HX-19", "test": "In vitro antibacterial activity, agar plate dilution method (MIC)", "assay_type": "cell-based", "conditions": "Proteus vulgaris, HX19, 16 h, read-out: Minimum Inhibitory Concentration (MIC: µg/ml)"}, "P.vulgaris No. 33": {"test_system": "P.vulgaris No. 33", "test": "In vitro antibacterial activity, agar plate dilution method (MIC)", "assay_type": "cell-based", "conditions": "Proteus vulgaris, NO.33, 16 h, read-out: Minimum Inhibitory Concentration (MIC: µg/ml)"}, "Ps.aeruginosa AK 109": {"test_system": "Ps.aeruginosa AK 109", "test": "In vitro antibacterial activity, agar plate dilution method (MIC)", "assay_type": "cell-based", "conditions": "Pseudomonas aeruginosa, AK109, 16 h, read-out: Minimum Inhibitory Concentration (MIC: µg/ml)"}, "Ps.aeruginosa AKR17": {"test_system": "Ps.aeruginosa AKR17", "test": "In vitro antibacterial activity, agar plate dilution method (MIC)", "assay_type": "cell-based", "conditions": "Pseudomonas aeruginosa, AKR17, 16 h, read-out: Minimum Inhibitory Concentration (MIC: µg/ml)"}, "Ps.aeruginosa IFO3445": {"test_system": "Ps.aeruginosa IFO3445", "test": "In vitro antibacterial activity, agar plate dilution method (MIC)", "assay_type": "cell-based", "conditions": "Pseudomonas aeruginosa, IFO3445, 16 h, read-out: Minimum Inhibitory Concentration (MIC: µg/ml)"}, "S.aureus 209P NIHJ-JC1": {"test_system": "S.aureus 209P NIHJ-JC1", "test": "In vitro antibacterial activity, agar plate dilution method (MIC)", "assay_type": "cell-based", "conditions": "Staphylococcus aureus, 16 h, read-out: Minimum Inhibitory Concentration (MIC: µg/ml)"}, "S.aureus BB5703": {"test_system": "S.aureus BB5703", "test": "In vitro antibacterial activity, agar plate dilution method (MIC)", "assay_type": "cell-based", "conditions": "Staphylococcus aureus, BB5703, 16 h, read-out: Minimum Inhibitory Concentration (MIC: µg/ml)"}, "S.aureus JS1": {"test_system": "S.aureus JS1", "test": "In vitro antibacterial activity, agar plate dilution method (MIC)", "assay_type": "cell-based", "conditions": "Staphylococcus aureus, JS1, 16 h, read-out: Minimum Inhibitory Concentration (MIC: µg/ml)"}, "S.epidermidis IAM12012": {"test_system": "S.epidermidis IAM12012", "test": "In vitro antibacterial activity, agar plate dilution method (MIC)", "assay_type": "cell-based", "conditions": "Staphylococcus epidermidis, IAM12012, 16 h, read-out: Minimum Inhibitory Concentration (MIC: µg/ml)"}, "S.marcescens IAM 1184": {"test_system": "S.marcescens IAM 1184", "test": "In vitro antibacterial activity, agar plate dilution method (MIC)", "assay_type": "cell-based", "conditions": "Serratia marcescens, IAM1184, 16 h, read-out: Minimum Inhibitory Concentration (MIC: µg/ml)"}, "S.marcescens No. 16-2": {"test_system": "S.marcescens No. 16-2", "test": "In vitro antibacterial activity, agar plate dilution method (MIC)", "assay_type": "cell-based", "conditions": "Serratia marcescens, NO.162, 16 h, read-out: Minimum Inhibitory Concentration (MIC: µg/ml)"}, "Ps.cepacia 23": {"test_system": "Ps.cepacia 23", "test": "In vitro antibacterial activity, agar plate dilution method (MIC)", "assay_type": "cell-based, Pseudomonas cepacia", "conditions": "Burkholderia cepacia, 23, 16 h, read-out: Minimum Inhibitory Concentration (MIC: µg/ml)"}, "Ps.maltophilia GN 12873": {"test_system": "Ps.maltophilia GN 12873", "test": "In vitro antibacterial activity, agar plate dilution method (MIC)", "assay_type": "cell-based, Pseudomonas maltophilia", "conditions": "Stenotrophomonas maltophilia, GN12873, 16 h, read-out: Minimum Inhibitory Concentration (MIC: µg/ml)"}, "[1]": {"test_system": "Enterobacter cloacae GN 5797", "test": "Induction of β-lactamase by β-lactam antibiotics", "assay_type": "cell-based", "procedure": "The assay method for induction of β-lactamase by β-latam antibiotics was as follows: The test organism, Enterobacter cloacae GN 5797, was grown overnight in Mueller Hinton broth (Dlfco Laboratories, Detroit, Mich.) at 37°C. The culture was diluted l0-fold into 20 ml of the flesh medium and incubated with shaking at 37°C. After 2 hours of incubation, antibiotics were added to final concentrations of 50 µg/ml, l0 µg/ml and l µg/ml, and the incubation was continued. At l hour intervals after the addition of antibiotic, 5 ml of sample was taken, and immediately added with 0.l ml of 50 mM sodium azide. The cells were harvested and washed with 50 mM phosphate buffer (pH 7.0). The cells were suspended in 5 ml of 50 mM phosphate buffer and disrupted with a sonicater in an ice-water bath. The broken cells were centrifuged at l6,500 G for 40 minutes at 4°C, and the resulting supernatant fluid was used as the crude enzyme. β-Lactamase activity was determined by a spectrophotometric method (Antmicrob. Agents Chemother. 17, 355-358, 1980) with cephaloridine as substrate. The concentration of protein was determined by the method of Lowry (J. Biol. Chem. 193, 265-275, 1951)."}}}
{"smiles": "CC(C)(O/N=C(\\C(=O)NC1C(=O)N2C(C(=O)[O-])=C(C[n+]3ccc4cc(O)c(O)cc4c3)CSC12)c1csc(N)n1)C(=O)O", "note": "(stereo not drawn) [Ex. 4, 7-[2-(2-aminothiazol-4-yl)-2-(l-carboxy-l-methylethoxyimino)acetamido]-3-(6,7-dihydroxy-2-isoquinolinio)methyl-3-cephem-4-carboxylate]", "values": [{"measurement": "MIC", "setting": "A.calcoaceticus No. 4", "value": 0.1, "unit": "µg/mL"}, {"measurement": "MIC", "setting": "C.freundii GN346/16", "value": 1.56, "unit": "µg/mL"}, {"measurement": "MIC", "setting": "C.freundii GN346", "value": 50, "unit": "µg/mL"}, {"measurement": "MIC", "setting": "E.cloacae 963", "value": 0.025, "unit": "µg/mL"}, {"measurement": "MIC", "setting": "E.cloacae Nek 39", "value": 0.025, "unit": "µg/mL"}, {"measurement": "MIC", "setting": "E.coli CSH(RE45)", "value": 0.39, "unit": "µg/mL"}, {"measurement": "MIC", "setting": "E.coli CSH2 (RK1)", "value": "< 0.006", "unit": "µg/mL"}, {"measurement": "MIC", "setting": "E.coli GN5482", "value": 0.39, "unit": "µg/mL"}, {"measurement": "MIC", "setting": "E.coli NIHJ JC2", "value": 0.1, "unit": "µg/mL"}, {"measurement": "MIC", "setting": "K.oxytoca GN10650", "value": "< 0.006", "unit": "µg/mL"}, {"measurement": "MIC", "setting": "K.pneumoniae No. 42", "value": 0.025, "unit": "µg/mL"}, {"measurement": "MIC", "setting": "K.pneumoniae PCI-602", "value": "< 0.006", "unit": "µg/mL"}, {"measurement": "MIC", "setting": "M.luteus ATCC9341", "value": 6.25, "unit": "µg/mL"}, {"measurement": "MIC", "setting": "M.morganii GN5407", "value": 0.05, "unit": "µg/mL"}, {"measurement": "MIC", "setting": "P.vulgaris HX-19", "value": "< 0.006", "unit": "µg/mL"}, {"measurement": "MIC", "setting": "P.vulgaris No. 33", "value": 0.0125, "unit": "µg/mL"}, {"measurement": "MIC", "setting": "Ps.aeruginosa AK 109", "value": 0.2, "unit": "µg/mL"}, {"measurement": "MIC", "setting": "Ps.aeruginosa AKR17", "value": 0.78, "unit": "µg/mL"}, {"measurement": "MIC", "setting": "Ps.aeruginosa IFO3445", "value": 0.2, "unit": "µg/mL"}, {"measurement": "MIC", "setting": "S.aureus 209P NIHJ-JC1", "value": 25, "unit": "µg/mL"}, {"measurement": "MIC", "setting": "S.aureus BB5703", "value": 50, "unit": "µg/mL"}, {"measurement": "MIC", "setting": "S.aureus JS1", "value": 100, "unit": "µg/mL"}, {"measurement": "MIC", "setting": "S.epidermidis IAM12012", "value": 12.5, "unit": "µg/mL"}, {"measurement": "MIC", "setting": "S.marcescens IAM 1184", "value": 0.0125, "unit": "µg/mL"}, {"measurement": "MIC", "setting": "S.marcescens No. 16-2", "value": 0.2, "unit": "µg/mL"}, {"measurement": "MIC", "setting": "Ps.cepacia 23", "value": "< 0.006", "unit": "µg/mL"}, {"measurement": "MIC", "setting": "Ps.maltophilia GN 12873", "value": 1.56, "unit": "µg/mL"}, {"measurement": "Specific activity (unit/mg protein)", "setting": "[1]; induced β-lactamase activity of crude enzyme, Concentration 10 µg/ml, Incubation time 3 hr, Substrate: 100 µM of cephaloridine", "value": 0.064, "unit": "unit/mg protein"}, {"measurement": "β-lactamase inducibility", "setting": "[1]; measured by Enterobacter cloacae GN 5797", "value": "no substantial β-lactamase-inducing activity was observed"}]}
